Experiments:
M. bovis BCG Japanese = assay type: cell-based, Mycobacterium bovis; conditions: agar dilution, 3-week incubation at 37° C.; smaller number = higher activity
[1] = test system: M. avium subsp. paratuberculosis ATCC43015; assay type: cell-based, Mycobacterium avium subsp. paratuberculosis
[2] = test system: M. avium subsp. avium ATCC25291; test: Minimum growth inhibitory concentration (MIC), serial dilution on Middlebrook 7H10 agar with mycobactin J; assay type: cell-based, Mycobacterium avium subsp. avium; conditions: 3-week incubation at 37° C., smaller number = higher activity

NNC(=O)c1ccncc1 [INH, isoniazid]
Minumum growth inhibitory conc. of test compounds, M. bovis BCG Japanese (M. bovis BCG Japanese): 0.20 µg/mL
Minumum growth inhibitory conc. of test compounds, M. avium subsp. paratuberculosis ATCC43015 [1]: >50 µg/mL
antibacterial activity against Mycobacterium avium subsp. paratuberculosis compared with the caprazamycin derivatives of Production Examples 1 and 2 [1]: lower antibacterial activity
Minumum growth inhibitory conc. of test compounds, M. avium subsp. avium ATCC25291 [2]: >50 µg/mL

caprazamycin B [CPZ-B]
Minumum growth inhibitory conc. of test compounds, M. bovis BCG Japanese (M. bovis BCG Japanese): 6.25 µg/mL
Minumum growth inhibitory conc. of test compounds, M. avium subsp. paratuberculosis ATCC43015 [1]: 3.13 µg/mL
antibacterial activity against Mycobacterium avium subsp. paratuberculosis compared with the caprazamycin derivatives of Production Examples 1 and 2 [1]: lower antibacterial activity
Minumum growth inhibitory conc. of test compounds, M. avium subsp. avium ATCC25291 [2]: 12.5 µg/mL

caprazol-3′″-dodecanoyl ester derivative [Compound VII-F]
Minumum growth inhibitory conc. of test compounds, M. bovis BCG Japanese (M. bovis BCG Japanese): 3.13 µg/mL
Minumum growth inhibitory conc. of test compounds, M. avium subsp. paratuberculosis ATCC43015 [1]: 0.78 µg/mL
Minumum growth inhibitory conc. of test compounds, M. avium subsp. avium ATCC25291 [2]: 12.5 µg/mL

Reference: patent US8058247B2 (priority 2006, dated 2011)
